We go through two compounds from patent US20040265368A1, “Combination compositions of camptothecins and fluoropyrimidines” (priority 2003, published 2004).

The subject of assay [1] is human Capan-1 pancreatic tumor cells. Briefly: Capan-1 pancreatic xenograft antitumor activity. In kind it is in vivo, SCID-Rag2M mice. Conditions: i.v., Q7D × 3, tumors to reach 500 mg.
Procedure: (§1) Briefly, in order to perform tumor studies on mice, animals are inoculated with tumor cells which are then allowed to grow to sufficient size. Using a 28 g needle, mice are inoculated subcutaneously with 1-2×10^6 tumor cells on day 0 (one inoculum/mouse) in a volume of 50 μL.
(§2) When tumors reach a defined size of approximately 100 mm^3 to 200 mm^3, either one-day prior to treatment or on the day of treatment, all tumors are measured. After selecting the appropriate tumor sizes, excluding tumors too small or large, the tumors are randomly distributed (n=6) and the mean tumor volume of the groups are determined. Mice are organized into appropriate treatment groups consisting of control and treatment groups such as for example, saline control, liposome control, positive control and various dilutions of test articles.
(§3) Mice are injected intravenously with the required volume of sample to administer the prescribed dose (10 μL/g as indicated) to the animals based on individual mouse weights.
(§4) Tumor growth measurements are monitored using vernier calipers beginning on the day of treatment. Tumor length measurements (mm) are made from the longest axis and width measurements (mm) will be perpendicular to this axis. From the length and width measurements tumor volumes (cm^3) are calculated according to the equation (L×W^2/2. Animal weights and in-life observations are collected at the time of tumor measurement.
(§5) In particular, signs of ill health are based on body weight loss, change in appetite, rough coat, lack of grooming, behavioral changes such as altered gait, lethargy and gross manifestations of stress. Should signs of severe toxicity or tumor-related illness be seen, the animals are euthanized (CO2 asphyxiation) and a necropsy is performed to assess other signs of toxicity. Moribund animals are terminated for humane reasons and the decision to terminate is at the discretion of the Study Director/Manager and the Animal Care Technician. Any and all of these findings will be recorded as raw data and the time of death will be logged as the following day.
(§6) Xenograft tumors were allowed to grow until they measured to be approximately 150 mg (150 mm^3) in size, and the murine tumors were grown to approximately 100 mg (100 mm^3), at which time the indicated formulations were injected. Tumor growth was determined by direct caliper measurements. […] Antitumor activity was quantitated by calculating the percent tumor growth delay and log cell kill. Percent tumor growth delay is defined as the time in days taken for treated tumors to reach the specified evaluation size as a percent of control (T−C/C×100) where T is the treatment tumors and C is the control tumors in days. […] A log cell kill of +6 indicates a 99.9999% reduction in the cell population.
For assay [2], the system named is human HT-29 colon adenocarcinoma. The assay can be described thus: HT-29 colorectal xenograft antitumor activity. Conditions: i.v., Q7D × 3, tumors to reach 400 mg.
Procedure: as §1, §2, §3, §4, §5, §6

As to `O=c1[nH]c(=O)n([C@H]2C[C@H](O)[C@@H](CO)O2)cc1F` [Free Flox, fluorodeoxyuridine], in assay [1] (dose 250 mg/kg), the Log cell kill is 0.43, the “Percent tumor growth delay [(T − C ÷ C) × 100]” value (from here on “Percent tumor growth delay”) is listed as 23% and the “Tumor growth delay” value stood at 10 days. Besides, in assay [2] (dose 250 mg/kg), the Log cell kill is reported as 0.09, the “Percent tumor growth delay” value is recorded as 8% and the “Tumor growth delay” value worked out at 2 days. Further, in assay [2] (dose 250 mg/kg, listed as free FUDR), the “Percent tumor growth delay” value was found to be 8%.
Consider `CCc1c2c(nc3ccc(OC(=O)N4CCC(N5CCCCC5)CC4)cc13)-c1cc3c(c(=O)n1C2)COC(=O)[C@]3(O)CC` [Free Irino, irinotecan], for which, in assay [1] (dose 100 mg/kg), the Log cell kill amounted to 0.65, the “Percent tumor growth delay” value came out at 35% and the “Tumor growth delay” value turned out to be 15 days. In assay [2] (dose 100 mg/kg), the Log cell kill was 0.09, the “Percent tumor growth delay” value was found to be 8% and the “Tumor growth delay” value stood at 2 days. For the same compound, the “Percent tumor growth delay” value in assay [2] (dose 100 mg/kg, listed as free CPT-11, 100 mg/kg) is reported as 8%.
